In patent publication US6930098B2, “Use of polysulphated cyclodextrins for treating osteoarthritis” (Universiteit Gent, priority 2000, dated 2005):

Tested on: Human articular chondrocytes
Test: Synthesis of extracellular aggrecans by chondrocytes cultured in agarose gel (35S incorporation)
Format: cell-based
Conditions: 2.5 μg/ml, 48 hours with Na2 35SO4 after culturing for two weeks; for Amount of 35S-aggrecans associated with the cells: cell-associated fraction; for Amount of 35S-aggrecans in the medium: incubation medium fraction; for Amount of 35S-aggrecans in the interterritorial matrix: interterritorial matrix fraction
Method: Evaluation of the in vitro effects of polysulphated cyclodextrins on the synthesis of extracellular aggrecans by chondrocytes.
Human articular chondrocytes are isolated according to the methods described by W. T. Green Jr (Clin. Orthop., 1971, 75, 248-260) and K. E. Kuettner et al. (J. Cell. Biol., 1982, 93, 743-750).
The chondrocytes are then cultured in agarose gel, in accordance with the method described by P. D. Benya et al. (Cell., 1982, 30, 215-224) and modified according to M. Cornelissen et al. (J. Tiss. Cult. Meth., 1993, 15, 139-146) and according to G. Verbruggen et al. (Clin. Exp. Rheumatol, 1990, 8, 371-378).
Synthesis of aggrecans: This is measured by determining the incorporation of 35S, supplied by a radioactive precursor, sodium sulphate Na2^35SO4. After culturing for two weeks, 10 μCi/ml of the radio-labelled precursor are introduced into the culture medium for 48 hours, as well as the compounds under test (polysulphated α-, β- and γ-cyclodextrins) or the reference compounds (chondroitin sulphate and polysulphate) at an end concentration of 2.5 μg/ml.
The newly synthesised ^35S-aggrecans accumulate partly in the intercellular agarose medium or are released into the incubation medium.
At the end of the incubation period, the agarose gel is broken up mechanically and is then digested with 3 ml of a 50 U/ml solution of […] in a 0.067M phosphate buffer at pH 6.0, in the presence of proteinase inhibitors.
The suspension thereby obtained is centrifuged; the supernatant, which comprises the ^35S-aggrecans of the interterritorial matrix, and the incubation medium, comprising the metabolites of ^35S-aggrecans released into the extracellular matrix, are combined for subsequent chromatography.
The centrifuged pellet, comprising the chondrocytes and the ^35S-aggrecans associated therewith, is treated for 48 hours with 1 ml of a 4.0M solution of guanidinium chloride in a 0.05M acetate buffer at pH 5.8 comprising the proteinase inhibitors. The objective of this operation is to extract the ^35S-aggrecans associated with the cells. The solution obtained is centrifuged to separate the cells from the supernatant, which is separated off for subsequent chromatography. The chromatography operations on the various fractions obtained are carried out on Sephadex G25 gel in a pH 6.8 phosphate buffer containing 0.01M Na2SO4, so as to separate the ^35S-aggrecans from the free Na2^35SO4.
The radioactivity of each of the macromolecular eluates obtained is measured and related to the number of chondrocytes contained in the initial culture and is expressed in terms of pg of SO4 incorporated into the aggrecans, per million chondrocytes and per hour.

polysulphated α-cyclodextrin [α CD]
Amount of 35S-aggrecans associated with the cells: 1315 pg of SO4 incorporated into the aggrecans, per million chondrocytes and per hour | Amount of 35S-aggrecans in the medium: 1589 pg of SO4 incorporated into the aggrecans, per million chondrocytes and per hour | Amount of 35S-aggrecans in the interterritorial matrix: 8036 pg of SO4 incorporated into the aggrecans, per million chondrocytes and per hour

chondroitin sulphate [CS, reference compound]
Amount of 35S-aggrecans associated with the cells: 1373 pg of SO4 incorporated into the aggrecans, per million chondrocytes and per hour | Amount of 35S-aggrecans in the medium: 2187 pg of SO4 incorporated into the aggrecans, per million chondrocytes and per hour | Amount of 35S-aggrecans in the interterritorial matrix: 6589 pg of SO4 incorporated into the aggrecans, per million chondrocytes and per hour

polysulphate β-cyclodextrin [β CD]
Amount of 35S-aggrecans associated with the cells: 2262 pg of SO4 incorporated into the aggrecans, per million chondrocytes and per hour | Amount of 35S-aggrecans in the medium: 1658 pg of SO4 incorporated into the aggrecans, per million chondrocytes and per hour | Amount of 35S-aggrecans in the interterritorial matrix: 6232 pg of SO4 incorporated into the aggrecans, per million chondrocytes and per hour

chondroitin polysulphate [CPS, reference compound]
Amount of 35S-aggrecans associated with the cells: 1392 pg of SO4 incorporated into the aggrecans, per million chondrocytes and per hour | Amount of 35S-aggrecans in the medium: 2519 pg of SO4 incorporated into the aggrecans, per million chondrocytes and per hour | Amount of 35S-aggrecans in the interterritorial matrix: 6446 pg of SO4 incorporated into the aggrecans, per million chondrocytes and per hour

polysulphated γ-cyclodextrin [γ CD]
Amount of 35S-aggrecans associated with the cells: 2907 pg of SO4 incorporated into the aggrecans, per million chondrocytes and per hour | Amount of 35S-aggrecans in the medium: 3873 pg of SO4 incorporated into the aggrecans, per million chondrocytes and per hour | Amount of 35S-aggrecans in the interterritorial matrix: 8232 pg of SO4 incorporated into the aggrecans, per million chondrocytes and per hour
